Measurements taken from patent US4500516A, “Antibacterial pharmaceutical composition” (priority 1982, dated 1985).
Structures can show the parent of a compound that is named as a salt. Where two headings read alike, the source gives them in different places.

Key:
[1] = tested on: infectious inflammatory diseases; conditions: prior-art drugs; cited from earlier work
[2] = tested on: pathogenic microorganisms; conditions: cited from earlier work
[3] = in vivo; conditions: rabbit, urine, 50 mg/kg
[4] = tested on: white mice; conditions: cited from earlier work
[5] = prior-art drugs; cited from earlier work
[6] = cited from earlier work
[7] = cited from earlier work; remark: listed apart in the source
[8] = rabbit, in vivo, po, 5 mg/kg, cited from earlier work; for total quantity removed, of the total quantity administered: 2880 min
[9] = cited from earlier work; remark: listed apart in the source
[10] = cited from earlier work; remark: listed apart in the source
[11] = in vivo; conditions: rabbit, blood
[12] = rabbit, in vivo, 50 mg/kg
[13] = tested on: Staphylococcus aureus haemolyticus; test: bacteriostatic concentration; format: cell-based
[14] = tested on: Bac. mycoides; test: microbe, parasite or virus in culture; format: cell-based; conditions: Bacillus mycoides, read-out: bacteriostatic concentration
[15] = tested on: Bac. coil; test: bacteriostatic concentration; format: cell-based

O=C1CN(N=Cc2ccc([N+](=O)[O-])o2)C(=O)N1 [Nitrofurantoin, 1-(5'-nitrofurfurylideneamino)-hydantoin]
spectrum of action [1]: relatively limited spectrum of action
bacteriostatic concentration value ([2]; in words): comparatively high
Cmax [3]: 610 µg/mL
Tmax [3]: 1 h
LD50 ([4]; white mice, oral administration): 166.7 mg/kg
toxicity [5]: noticeably toxic
removal from the organism ([6]; in vivo): quickly removed from the organism
absorption from the gastrointestinal tract ([6]; oral): quickly absorbable from the gastrointestinal tract
drug concentration in the blood and in the urine ([6]; oral): capable of reaching a level sufficient to produce a therapeutic effect
intolerance ([7]; medical practice): Sometimes this pharmaceutical composition is observed to meet with intolerance

O=C1CN(N=CC=Cc2ccc([N+](=O)[O-])o2)C(=O)N1 [Furagin, N-[β-(5'-nitrofuryl-2')-acrylidene]-1-aminohydantoin]
spectrum of action [1]: wider spectrum of therapeutic action than the aforesaid Nitrofurantoin and Furadantin
total quantity removed, of the total quantity administered [8]: 2.75±0.41%
concentrations in the urine, Furagin versus Solafur [8]: roughly equal
pK [9]: 6
solubility in water [10]: very poorly soluble in water
intolerance ([7]; in vivo): in quite a number of cases, said pharmaceutical composition is observed to meet with intolerance

O=C1CN(N=CC=Cc2ccc([N+](=O)[O-])o2)C(=O)N1 [Solafur, potassium salt of N-[β-(5'-nitrofuryl-2')-acrylidene]-1-aminohydantoin]
spectrum of action [1]: broader spectrum of action compared to Furagin
concentration at 0.25 h [11]: 2.8 µg/mL
total quantity removed, of the total quantity administered [8]: 2.83±0.48%
concentrations in the urine, Furagin versus Solafur [8]: roughly equal
synergistic action with antibiotics ([2]; a range of antibiotics, most pathogenic microorganisms): capability of producing synergistic action with a range of antibiotics upon most pathogenic microorganisms
total excretion of Solafur with urine [12]: 3.43 ± 0.3 mg
MIC [13]: 2.5 µg/mL
MIC [14]: 2.5 µg/mL
solubility in water [10]: higher than that of the aforementioned Furagin
LD50 ([4]; mouse, in vivo, po): 390 mg/kg
MIC [15]: 2.5 µg/mL
side effects on faster administration ([7]; in vivo, iv): headache and nausea
intolerance ([7]; in vivo): in some cases this pharmaceutical composition is observed to meet with intolerance
